{
  "source": "patent US20210196652A1",
  "about": "“USE OF CYSTEAMINE AND DERIVATIVES THEREOF TO TREAT DYSFUNCTIONAL TEAR SYNDROME (DTS)” (MESHABERASE, LLC, priority 2019, published 2021)",
  "key": {"[1]": {"conditions": "administered for conditions such as cystinosis; available cysteamine products; cited from earlier work"}, "[2]": {"assay": "Self-treatment of dysfunctional tear syndrome patients with cysteamine ocular drops: symptom diary (3-point Likert scale), weekly interviews, patient reports", "assay_type": "in vivo, human", "text": "(§1) Sterile ocular cysteamine drops with a concentration of 0.44% were used in a dosage schedule of one drop per eye, four times per day.\n(§2) Four patients were self-treated with cysteamine ocular drops as described above for 30-37 days. Patients were requested to fill out a diary sheet daily and to return weekly for follow-up. Three of the four patients filled out the diary that included a 3-point Likert scale of symptoms, number of times drops were used daily, and a space for other comments. […] Patients were tested for MMP using the INFLAMMADRY test (see Kaufman) and the Schirmer test (in which a filter paper strip is placed in the lower fornix of the eyelid to absorb tears), with and without anesthesia, using Oxford grading (observation of conjunctiva and cornea using BIO-GLO fluorescein strips) at entry, and Schirmer with and without anesthesia on the final visit.\nFour patients (Patients 1, 2, 3, and 4) were tested. […] Among the patients testing MMP-positive, there was an improvement in Likert-scale and other comments. […] Patients 1 and 3 returned for 4 weekly visits; Patient 2 returned for 5 weekly visits.\nPatient 4 was not tested for MMP, but presented with symptoms of DTS, including years of pain and poor response to other treatments. On the theory the MMP is involved or a causative factor in recurrent epithelial erosion and dry eye, they were treated using the same regimen noted above for Patients 1, 2, and 3. Following treatment, Patient 4 reports being “cured,” and is apparently free of significant symptoms."}, "[3]": {"assay": "Schirmer test (filter paper strip in lower fornix) in treated DTS patients", "assay_type": "in vivo, human", "conditions": "MMP-positive patients (Patients 1 and 3)", "text": "as §1, §2"}, "[4]": {"conditions": "cited from earlier work"}, "[5]": {"test_system": "intracellular cystine levels in circulating leukocytes", "conditions": "cited from earlier work"}, "[6]": {"conditions": "children with cystinosis, enteral administration"}},
  "data": [
    {"smiles": "NCCS", "note": "[cysteamine, Cysteamine (HS—CH2—CH—2—NH2)]", "values": [
      {"measurement": "ocular adverse effects", "setting": "[1]", "value": "slinging and stippling erosion of the cornea"},
      {"measurement": "objective and subjective symptoms of Dry Eye Disease (DTS, dry eye, keratitis sicca)", "setting": "[2]; MMP positive patients, 0.44% drops, one drop per eye, four times per day", "value": "decreases"},
      {"measurement": "Likert-scale (3-point scale of symptoms) and other diary comments", "setting": "[2]; MMP-positive patients (Patients 1 and 3), 0.44% drops four times per day, 30-37 days", "value": "improvement"},
      {"measurement": "symptoms reported at interview during each weekly visit", "setting": "[2]; MMP-positive patients (Patients 1 and 3), FIGS. 1 and 2", "value": "changes in symptoms indicative of improvement"},
      {"measurement": "need for artificial tears after starting treatment", "setting": "[2]; Patient 2, MMP-negative", "value": "able to go without artificial tears for a majority of the four weeks"},
      {"measurement": "3-point Likert scale of symptoms", "setting": "[2]; Patient 2, MMP-negative, no objective findings of DTS", "value": "did not report changes"},
      {"measurement": "patient-reported outcome following treatment", "setting": "[2]; Patient 4, not tested for MMP, recurrent epithelial erosion and dry eye, same regimen", "value": "cured"},
      {"measurement": "Schirmer tests at the end of the study", "setting": "[3]", "value": "improvement in Schirmer tests"},
      {"measurement": "unpleasant side effects", "setting": "[4]; high systemic dosing levels and frequencies, CYSTAGON package insert", "value": "gastrointestinal distress and body odor"},
      {"measurement": "metabolism and clearance from the body", "setting": "[4]; systemic administration", "value": "converted to taurine in a matter of hours"},
      {"measurement": "intracellular cystine levels in circulating leukocytes", "setting": "[5]; Dohil et al. 2006", "value": "lowering of intracellular cystine levels"},
      {"measurement": "lowering of leukocyte cystine levels", "setting": "[5]; [6]", "value": "prolonged efficacy"},
      {"measurement": "plasma cysteamine levels", "setting": "[5]; [6]", "value": "increased plasma cysteamine levels"}
    ]}
  ]
}
